Results as given in patent US12059425B2, “Heterocyclic compounds and uses thereof” (Kumquat Biosciences Inc., priority 2022, dated 2024).

Columns and labels:
wildtype K-Ras = biological target: T1, wildtype K-Ras (Homo sapiens, UniProt P01116); test: PPI-HTRF assay, wildtype K-Ras / SOS1 interaction; format: biochemical; details: HTRF, K-Ras wt; read-out: PPI-HTRF-5 nM (K-Ras wt IC50)
T1 construct: made in house; host or cells: E. coli, e.g. BL21 (DE3)
Summary of the method: (§1)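 HTRF readout: 665/620 nm ratio (ex 337 nm) after ≥10 min incubation. Donor anti-GST-Eu(K) sits on GST-K-Ras (WT, G12D, G12V or G12S) and acceptor anti-6His-XL665 on His-hSOS1. Buffer ~5 mM HEPES pH 7.4, ~150 mM NaCl, ~1 mM DTT, 0.05% BSA, 0.0025% Igepal. Duplicate 6-point dilution, 10–0.01 μM, fitted to IC50.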

K-Ras G12S = biological target: T2, K-Ras G12S (Homo sapiens, UniProt P01116, G12S); test: PPI-HTRF assay, K-Ras G12S / SOS1 interaction; format: biochemical; details: read-out: PPI-HTRF-5 nM (K-Ras G12S IC50)
T2 construct: made in house; host or cells: E. coli, e.g. BL21 (DE3)
T2 sequence (P01116 1-188 isoform P01116-2 G12S): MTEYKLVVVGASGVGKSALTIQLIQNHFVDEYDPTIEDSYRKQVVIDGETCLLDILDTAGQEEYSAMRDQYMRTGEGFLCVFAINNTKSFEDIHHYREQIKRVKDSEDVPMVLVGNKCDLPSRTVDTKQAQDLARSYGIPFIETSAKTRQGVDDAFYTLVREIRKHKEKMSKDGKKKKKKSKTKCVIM
Summary of the method: as §1

A549 cells = test: Ras cellular assay, cell proliferation A549; format: cell-based; details: Homo sapiens
Summary of the method: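 G12S-mutant A549 cells (800/well) in RPMI-1640 plus 10% heat-inactivated FBS, standard or ultra-low attachment 384-well plates, dosed the day after plating with a 10-point 3-fold series. Viability by CellTiter-Glo luminescence about 6 days later; IC50 from four-parameter fit.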

SW620 cells = test: Ras cellular assay, cell proliferation SW620; format: cell-based; details: Homo sapiens, SW-620
Source text: For example, this assay can be also used to assess selective growth inhibition of a mutant Ras protein relative to a wildtype, or relative to a different mutant Ras protein.

K-Ras G12V = biological target: T3, K-Ras G12V (Homo sapiens, UniProt P01116, G12V); test: PPI-HTRF assay, K-Ras G12V / SOS1 interaction; format: biochemical; details: HTRF, K-Ras G12V; read-out: PPI-HTRF-5 nM (K-Ras G12V IC50)
T3 construct: made in house; host or cells: E. coli, e.g. BL21 (DE3)
T3 sequence (P01116 1-188 isoform P01116-2 G12V): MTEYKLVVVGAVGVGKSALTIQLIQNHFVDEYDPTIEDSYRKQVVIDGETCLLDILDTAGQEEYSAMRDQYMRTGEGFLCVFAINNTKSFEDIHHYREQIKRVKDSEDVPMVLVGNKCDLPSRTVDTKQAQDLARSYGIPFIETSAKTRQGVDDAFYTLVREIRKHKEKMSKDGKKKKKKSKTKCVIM
Summary of the method: as §1

K-Ras G12D = biological target: T4, K-Ras G12D (Homo sapiens, UniProt P01116, G12D); test: PPI-HTRF assay, K-Ras G12D / SOS1 interaction; format: biochemical; details: HTRF, K-Ras G12D; read-out: PPI-HTRF-5 nM (K-Ras G12D IC50)
T4 construct: made in house; host or cells: E. coli, e.g. BL21 (DE3)
T4 sequence (P01116 1-188 isoform P01116-2 G12D): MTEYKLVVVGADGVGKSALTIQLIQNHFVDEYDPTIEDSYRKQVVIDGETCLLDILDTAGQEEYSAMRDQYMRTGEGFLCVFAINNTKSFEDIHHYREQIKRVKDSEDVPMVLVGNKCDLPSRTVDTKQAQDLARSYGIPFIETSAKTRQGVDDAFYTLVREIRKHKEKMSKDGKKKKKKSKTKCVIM
Summary of the method: as §1

GP2D cells = test: Ras cellular assay, cell proliferation GP2D; format: cell-based
Summary of the method: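 Growth inhibition read by CellTiter-Glo luminescence roughly 5 days after compound addition, which followed overnight plating of G12D-mutant GP2D cells (e.g., 800 per well). Compounds were tested as a serial dilution (e.g., 9 points, 3-fold), with IC50 fitted by four-parameter model.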

Measured: IC50

T1 sequence (P01116 1-188 isoform P01116-2): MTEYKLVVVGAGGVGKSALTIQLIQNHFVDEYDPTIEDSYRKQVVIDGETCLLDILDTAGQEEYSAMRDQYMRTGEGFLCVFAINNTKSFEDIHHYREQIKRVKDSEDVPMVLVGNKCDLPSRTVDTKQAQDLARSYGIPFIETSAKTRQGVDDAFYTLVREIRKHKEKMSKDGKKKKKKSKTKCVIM

N#Cc1c(N)sc2c(F)ccc(-c3c(Cl)c4c5c(nc(OCC67CCCN6C[C@H](F)C7)nc5c3F)N3CCC[C@H]3CO4)c12 (stereo partly drawn) [compound 159, 2-amino-4-((12aS)-10-chloro-8-fluoro-6-(((2R)-2-fluorotetrahydro-1H-pyrrolizin-7a(5H)-yl)methoxy)-2,3,12,12a-tetrahydro-1H-pyrrolo[2′,1′:3,4][1,4]oxazepino[5,6,7-de]quinazolin-9-yl)-7-fluorobenzo[b]thiophene-3-carbonitrile]
< 5 µM: all assays above

COC[C@H]1C[C@H]2COc3c(Cl)c(-c4ccc(F)c5sc(N)c(C#N)c45)c(F)c4nc(OC[C@@]56CCCN5C[C@H](F)C6)nc(c34)N21 [compound 173, 2-amino-4-(9-chloro-7-fluoro-5-(((2R,7aS)-2-fluorotetrahydro-1H-pyrrolizin-7a(5H)-yl)methoxy)-2-(methoxymethyl)-1,2,11,11a-tetrahydroazeto[2′,1′:3,4][1,4]-oxazepino[5,6,7-de]quinazolin-8-yl)-7-fluorobenzo[b]thiophene-3-carbonitrile]
< 5 µM: all assays above

N#Cc1c(N)sc2c(F)ccc(-c3c(Cl)c4c5c(nc(OC[C@@]67CCCN6C[C@H](F)C7)nc5c3F)N3CCN(C(=O)C(F)F)CCC3CO4)c12 (stereo partly drawn) [compound 149, 2-amino-4-(6-chloro-11-(2,2-difluoroacetyl)-4-fluoro-2-(((2R,7aS)-2-fluorotetrahydro-1H-pyrrolizin-7a(5H)-yl)methoxy)-8a,9,10,11,12,13-hexahydro-8H-[1,4]diazepino[7′,1′:3,4][1,4]oxazepino [5,6,7-de]quinazolin-5-yl)-7-fluorobenzo[b]thiophene-3-carbonitrile]
< 5 µM: all assays above
